Measurements as given in patent US9814696B2, “Use of coumarin derivatives for the preparation of drugs for treating skin diseases” (UNIVERSITE PIERRE ET MARIE CURIE (PARIS 6), priority 2011, dated 2017).

Columns and labels:
Assay type in all cases: biochemical
[1] = target: T1, KLK5 (Homo sapiens, UniProt Q9Y337); assay: KLK5 enzyme inhibition assay, fluorogenic substrate Boc-Val-Pro-Arg-AMC; settings: for IC50: Table A, read-out: IC50 (μM) KLK5; for IC50 / inhibition at 50 µM / inhibition at 100 µM: 37° C., 15 min of incubation, pH 8
T1 sequence (Q9Y337 23-293): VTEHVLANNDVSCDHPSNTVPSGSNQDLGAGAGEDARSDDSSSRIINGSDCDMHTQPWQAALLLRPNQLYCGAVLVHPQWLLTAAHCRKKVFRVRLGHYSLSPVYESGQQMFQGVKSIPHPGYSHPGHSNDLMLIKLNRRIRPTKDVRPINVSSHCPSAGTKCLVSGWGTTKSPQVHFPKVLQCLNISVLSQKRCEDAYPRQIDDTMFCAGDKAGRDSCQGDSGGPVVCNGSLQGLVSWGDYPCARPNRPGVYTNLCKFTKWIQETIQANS
Protocol: (§1) Kallikreins KLK5, KLK7 and KLK14 activities were determined by monitoring the hydrolysis of the appropriate fluorogenic substrate (λexc=355, λem=460 nm) for 15 min at 37° C. in the presence of the untreated kallikrein (control) or kallikrein that had been incubated with a test compound. Substrate and compounds were previously dissolved in DMSO, with the final solvent concentration kept constant at 2% (v/v) (KLK 5 and 14), and 4% (v/v) (KLK7). The composition of the activity buffers (pH 8.0) was 100 mM Tris-HCl, 150 mM NaCl, 0.01% (v/v) Tween 20 for the KLK5 assay, and 100 mM Tris-HCl, 1M NaCl, 0.01% (v/v) Tween 20 in the KLK 7 and 14 assays. The final concentrations were 0.6 nM (KLK5) and 100 μM (Boc-Val-Pro-Arg-AMC) (KLK5 assay), 8 nM (KLK7) and 40 μM (Suc-Leu-Leu-Val-Tyr-AMC, AMC: 7-amino-4-methyl-coumarin) (KLK7 assay), and 0.17 nM (KLK14) and 10 μM (Boc-Val-Pro-Arg-AMC) (KLK14 assay). Using the appropriate substrate, the coumarinic compounds (0.01-100 μM) were tested in duplicate for each inhibitor concentration to detect their inhibitory potential. The enzyme and the inhibitors were incubated for 15 min before the determination of the enzyme activity. Initial rates determined in control experiments (V0) were considered to be 100% of the peptidase activity; initial rates below 100% were considered to be inhibitions. The inhibitory activity of compounds was expressed as IC50 (inhibitor concentrations giving 50% inhibition). The values of IC50 were calculated by fitting the experimental data to the equation: % Inhibition=100×(1−Vi/V0)=100[I]0/(IC50+[I]0), or equation: % Inhibition=100[I]0^nH/(IC50^nH+[I]0^nH),nH is the Hill number.
(§2) The tests were realized at 37° C. after 15 min of incubation at pH 8.

[2] = target: T2, KLK14 (Homo sapiens, UniProt Q9P0G3); assay: KLK14 enzyme inhibition assay, fluorogenic substrate Boc-Val-Pro-Arg-AMC; settings: for IC50: Table A, read-out: IC50 (μM) KLK14; for IC50 / inhibition at 100 µM / inhibition at 50 µM: 37° C., 15 min of incubation, pH 8
T2 sequence (Q9P0G3 25-251): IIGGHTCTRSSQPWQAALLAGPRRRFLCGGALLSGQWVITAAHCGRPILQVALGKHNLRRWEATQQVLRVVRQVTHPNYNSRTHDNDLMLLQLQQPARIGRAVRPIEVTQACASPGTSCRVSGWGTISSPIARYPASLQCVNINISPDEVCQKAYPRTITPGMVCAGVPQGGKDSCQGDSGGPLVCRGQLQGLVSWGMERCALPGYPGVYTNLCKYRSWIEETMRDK
Protocol: as §1, §2

[3] = target: KLK7 (Homo sapiens, UniProt P49862); assay: KLK7 enzyme inhibition assay, fluorogenic substrate Suc-Leu-Leu-Val-Tyr-AMC; settings: for IC50: Table A, read-out: IC50 (μM) KLK7; for selective activity against enzyme: KLK7: Table B, among KLK5, KLK7 and KLK14
Protocol: as §1, §2

[4] = 37° C., 15 min of incubation, pH 8
[5] = Table B, among KLK5, KLK7 and KLK14

Sequence of KLK7 (P49862 30-253): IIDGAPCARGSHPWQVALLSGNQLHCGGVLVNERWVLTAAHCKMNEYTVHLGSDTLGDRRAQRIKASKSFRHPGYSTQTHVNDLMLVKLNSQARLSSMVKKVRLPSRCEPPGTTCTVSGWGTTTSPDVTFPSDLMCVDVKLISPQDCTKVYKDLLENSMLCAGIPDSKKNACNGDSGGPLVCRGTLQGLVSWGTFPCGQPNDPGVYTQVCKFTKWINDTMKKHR

Cc1ccc2oc(=O)c(C(=O)Oc3cc(F)ccc3[N+](=O)[O-])cc2c1 [CFL25]
IC50 [1]: 44 ± 10 µM
IC50 [2]: 68 ± 9 µM

O=C(Oc1cncc(Cl)c1)c1cc2cc(CCl)ccc2oc1=O [LP2]
IC50 [3, 4]: 0.128 ± 0.03 µM
selective activity against enzyme: KLK7 [3]: KLK7

CC(=O)OCc1ccc2oc(=O)c(C(=O)Oc3cccc(Cl)c3)cc2c1 [LP46]
inhibition at 50 µM [1]: 31%
IC50 [2]: 31 ± 6 µM

CCC(=O)OCc1ccc2oc(=O)c(C(=O)Oc3cncc(Cl)c3)cc2c1 [LP42]
inhibition at 50 µM [1]: 22%
inhibition at 100 µM ([3]; 100 μM, 37° C., 15 min of incubation, pH 8): 52%
selective activity against enzyme: KLK7 [3]: KLK7

O=C(Oc1ccccc1Cl)c1cc2cc(CCl)ccc2oc1=O [MFS36]
inhibition at 100 µM [1]: 50%
IC50 [3, 4]: 0.209 ± 0.006 µM
selective activity against enzyme: KLK7 [3]: KLK7
inhibition at 100 µM [2]: 100%

COC(=O)c1ccccc1OC(=O)c1cc2cc(COC(C)=O)ccc2oc1=O [IK8]
IC50 [1]: ~40 µM
IC50 [3, 4]: 64.3 ± 2.7 µM
inhibition at 100 µM [2]: 64%

CC(=O)OCc1ccc2oc(=O)c(C(=O)Oc3ccccc3C#N)cc2c1 [SMB33, 2-cyanophenyl 6-acetoxymethyl-2-oxo-2H-1-benzopyran-3-carboxylate]
inhibition at 50 µM [2]: 27%
selective activity against enzyme: KLK14 [2, 5]: KLK14

O=C(Oc1cc(Cl)cc(Cl)c1)c1cc2cc(CCl)ccc2oc1=O [LP75]
IC50 [1]: 80 ± 8 µM
IC50 [3, 4]: 0.136 ± 0.012 µM

CCOC(=O)c1cc2cc(CCl)ccc2oc1=O [MFS3]
inhibition at 50 µM [1]: 39%
IC50 [3, 4]: 20.9 ± 0.9 µM
inhibition at 100 µM [2]: 48%

O=C(Oc1ccccc1)c1cc2cc(CO)ccc2oc1=O [MH30]
inhibition at 50 µM [1]: 25%
IC50 [3, 4]: 33.2 ± 1.4 µM
inhibition at 50 µM [2]: 32%

CC(=O)OCc1ccc2oc(=O)c(C(=O)Oc3cccc(Br)c3)cc2c1 [IK9]
inhibition at 50 µM [1]: 22%
selective activity against enzyme: KLK5 [1, 5]: KLK5

O=C(Oc1cc(F)ccc1Br)c1cc2cc(CCl)ccc2oc1=O [CFL15]
inhibition at 100 µM [1]: 47%
IC50 [3, 4]: 0.352 ± 0.055 µM
selective activity against enzyme: KLK7 [3]: KLK7
inhibition at 100 µM [2]: 45%

O=C(Oc1ccc(I)cc1)c1cc2cc(CCl)ccc2oc1=O [LP16]
inhibition at 50 µM [3, 4]: 47%

O=C(Oc1cc(F)ccc1[N+](=O)[O-])c1cc2cc(CCl)ccc2oc1=O [CFL16]
inhibition at 100 µM [1]: 40%
IC50 [3, 4]: 0.9 ± 0.4 µM
inhibition at 100 µM [2]: 73%

O=C(Oc1ccccc1Cl)c1cc2cc(O)ccc2oc1=O [MH14]
inhibition at 50 µM [3, 4]: 35%
selective activity against enzyme: KLK7 [3]: KLK7

O=C(Oc1cc(Cl)ccc1Cl)c1cc2cc(CCl)ccc2oc1=O [LP74]
IC50 [1]: 1.3 ± 0.2 µM
IC50 [3, 4]: 0.195 ± 0.024 µM
selective activity against enzyme: KLK7 [3]: KLK7
IC50 [2]: 54 ± 6 µM

O=C(O)c1ccc(Cl)cc1OC(=O)c1cc2cc(CCl)ccc2oc1=O [IK5]
IC50 [1]: 36.9 ± 4.2 µM
IC50 [3, 4]: 5.8 ± 0.2 µM
IC50 [2]: 89 ± 10 µM

CC(=O)NCc1ccc2oc(=O)c(C(=O)Oc3cccc(Cl)c3)cc2c1 [IK53]
inhibition at 10 µM ([3]; 10 μM, 37° C., 15 min of incubation, pH 8): 54%
selective activity against enzyme: KLK7 [3]: KLK7

COC(=O)c1cc2cc(CCl)ccc2oc1=O [MFS2]
IC50 [1]: 54 ± 2 µM
IC50 [3, 4]: 26.8 ± 1.5 µM
IC50 [2]: 73 ± 14 µM

CS(=O)(=O)NCc1ccc2oc(=O)c(C(=O)Oc3cccc(Cl)c3)cc2c1 [MH24]
IC50 [3, 4]: 33.2 ± 1.4 µM
inhibition at 50 µM [2]: 42%

NCc1ccc2oc(=O)c(C(=O)Oc3ccccc3)cc2c1 [LP71]
IC50 [1]: 182 ± 14 µM

CC(=O)OCc1ccc2oc(=O)c(C(=O)Oc3cc(Cl)ccc3Cl)cc2c1 [CFL4]
IC50 [3, 4]: 5.01 ± 0.4 µM
inhibition at 50 µM [2]: 60%

O=C(Oc1cccc(F)c1)c1cc2cc(CCl)ccc2oc1=O [LP51]
inhibition at 50 µM [1]: 26%
IC50 [3, 4]: 0.25 ± 0.01 µM
selective activity against enzyme: KLK7 [3]: KLK7
inhibition at 100 µM [2]: 30%
